Counter-ions that a name gives are not always drawn. Like-named read-outs stand apart in the source and are kept apart here.
Assays:
[1] = tested on: Plasmodium falciparum IPC5202 (Pf5202); assay: In vitro anti-malarial activity using SYBR Green I nucleic acid dye; assay type: cell-based; conditions: for IC50: read-out: IC50 of Pf5202; for Drop in efficacy/potency towards Pf5202 relative to Pf3D7: ratio of IC50 values
Protocol: (§1) The drug-sensitive strain of P. falciparum 3D7 (Pf3D7) was obtained from the Department of Science, Monash University, Malaysia and cultured as previously described. The artemisinin-resistant strain of P. falciparum IPC5202 (Pf5202) was obtained from BEI Resources and cultured as mentioned in the product sheet. Both strains were maintained in sealed flask at 37 °C in a humidified atmosphere of 5% O2, 5% CO2 and 90% N2. All buffer stock solutions for biological assays were autoclaved at 121 °C for 15 min.
(§2) Previously reported anti-malarial assay was used with slight modification using 1% parasitaemia (ring-stage) and 5% haematocrit treated with test compounds at increasing concentration and incubated for 72 h at 37 °C [21–23]. After the incubation, the assay was terminated by freeze/thaw cycle (− 80 °C overnight before thawing for 2 h) before the addition of lysis buffer containing SYBR Green I dye into each well and mixed thoroughly using the belly dancer for 30 min in the dark. Chloroquine diphosphate salt and artemisinin were used as standard drugs. The fluorescence signal was quantified at 485 nm excitation wavelength and 528 nm emission wavelength. IC50 values of each test compound was determined from a dose response curve by non-linear regression analysis.

[2] = tested on: Plasmodium falciparum 3D7 (Pf3D7); assay: as above; assay type: cell-based; conditions: read-out: IC50 of Pf3D7
Protocol: as §1, §2

[3] = PNDA assay of •OH radicals from reaction with H2O2; conditions: for Generation of ·OH radicals (in words): equimolar test compound with excess H2O2; for Concentration of •OH radical: 30 µM compound with excess H2O2
Protocol: A previously reported spectrometric assay using PNDA was used to quantify the amount of reactive oxygen species (ROS), viz. •OH radicals, produced by the reaction of metal(II) complexes with hydrogen peroxide in borate buffer at pH 7.5 [24–26]. The percentage of PNDA bleaching and the concentration of •OH produced were determined.

Pf3D7 = assay: Intracellular ROS level using DCFH-DA; assay type: cell-based, Plasmodium falciparum
Protocol: (§3) After incubation, packed cells were washed with phosphate buffer saline (PBS) solution. […] The data was expressed as fold change between amount of ROS produced by treated P. falciparum against untreated P. falciparum. Normalization was done with the percentage of parasite viability obtained at each condition. Hydrogen peroxide was used as positive control.

Pf5202 = assay: Intracellular ROS level using DCFH-DA; assay type: cell-based, Plasmodium falciparum
Protocol: as §3

[4] = tested on: B+ blood red blood cells (RBC); assay: In vitro haemolytic assay; assay type: cell-based, human; conditions: 1 µM; 72 h; B+ blood
Protocol: Fresh B+ blood was washed with RPMI1640 medium containing of 30 µg/mL gentamicin (Gibco) and centrifuged at 1000 xg for 10 min three times. The percentage of haemolysis was determined spectroscopically using 5% haematocrit containing test compound at increasing concentration and incubated for 72 h at 37 °C [19, 20]. Untreated blood acted as negative control while blood treated with sterile distilled water acted as positive control (for 100% haemolysis).

[5] = target: Pf3D7 20S proteasome caspase-like (C-L) site (Plasmodium falciparum, UniProt Q8I0U7); assay: 20S proteasome inhibition assay using parasite lysate; assay type: biochemical; conditions: Suc-LLE-AMC, 30 min
Protocol: (§4) To harvest P. falciparum parasites, intraerythrocytic Pf3D7 and Pf5202 were collected in trophozoite and early schizont stages. Red blood cells were lysed in 0.15% (w/v) saponin lysis buffer for 10 min at 37 °C. After lysis, the parasite pellet was washed once with PBS buffer by centrifuging at 1600 rpm for 5 min. Saponin lysis buffer was added once again to remove all the red blood cells for 10 min at 37 °C, followed by washing with PBS twice and immediately used or kept at − 80 °C. To prepare parasite lysates for proteasome purification, parasite pellet was resuspended with 100 µl of pre-cooled Pierce™ RIPA buffer. A mild protein extraction method was used to prepare parasite extracts. The resuspended parasites were passed 20 times through a needle with a diameter of 0.4 mm in a syringe on ice to lyse the parasite. After 15 min centrifugation at 13,000 xg at 4 °C, the supernatant was removed. Protein concentration was determined by the Bradford assay. The activities of 3 proteolytic sites were determined by fluorescence assay using fluorogenic peptide substrates (Suc-LLVY-AMC for chymotrypsin-like, Boc-LRR-AMC for trypsin-like and Suc-LLE-AMC for caspase-like) Proteasome activities were determined by monitoring the substrate hydrolysis for 30 min at 37 °C with 340 nm excitation and 465 nm emission wavelength. Activity of each proteolytic site were calculated, and the IC50 values were determined from the non-linear regression analysis. VR23 proteasome inhibitor was used as positive control.

[6] = target: Pf5202 20S proteasome trypsin-like (T-L) site (Plasmodium falciparum, UniProt Q8I6T3); assay: as above; assay type: biochemical; conditions: for IC50: parasite lysate, Boc-LRR-AMC, 30 min
Protocol: as §4

[7] = target: Pf3D7 20S proteasome trypsin-like (T-L) site (Plasmodium falciparum, UniProt Q8I6T3); assay: as above; assay type: biochemical; conditions: Boc-LRR-AMC, 30 min
Protocol: as §4

[8] = target: Pf5202 20S proteasome caspase-like (C-L) site (Plasmodium falciparum, UniProt Q8I0U7); assay: as above; assay type: biochemical; conditions: Suc-LLE-AMC, 30 min
Protocol: as §4

[9] = target: Pf3D7 20S proteasome chymotrypsin-like (CT-L) site (Plasmodium falciparum, UniProt Q8IJT1); assay: as above; assay type: biochemical; conditions: Suc-LLVY-AMC, 30 min
Protocol: as §4

[10] = target: Pf5202 20S proteasome chymotrypsin-like (CT-L) site (Plasmodium falciparum, UniProt Q8IJT1); assay: as above; assay type: biochemical; conditions: Suc-LLVY-AMC, 30 min
Protocol: as §4

[11] = Plasmodium falciparum, 72 h incubation
[12] = Plasmodium falciparum, 3D7, 72 h incubation
[13] = positive control, 24 h, 1000 µM
[14] = positive control, 48 h, 1000 µM
[15] = positive control, 72 h, 1000 µM
[16] = 72 h incubation, listed as copper(II) nitrate

Sequence of Pf5202 20S proteasome trypsin-like (T-L) site (Q8I6T3 entry or part of it): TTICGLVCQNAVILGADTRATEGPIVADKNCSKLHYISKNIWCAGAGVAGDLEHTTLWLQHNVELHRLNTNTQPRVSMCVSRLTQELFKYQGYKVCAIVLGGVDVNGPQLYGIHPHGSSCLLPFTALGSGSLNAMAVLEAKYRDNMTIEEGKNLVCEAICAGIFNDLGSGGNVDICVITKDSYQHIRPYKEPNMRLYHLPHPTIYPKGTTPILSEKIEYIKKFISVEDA
Sequence of Pf3D7 20S proteasome trypsin-like (T-L) site (Q8I6T3 entry or part of it): as above
Sequence of Pf3D7 20S proteasome caspase-like (C-L) site (Q8I6T3 entry or part of it): as above
Sequence of Pf3D7 20S proteasome caspase-like (C-L) site (Q8I0U7 entry or part of it): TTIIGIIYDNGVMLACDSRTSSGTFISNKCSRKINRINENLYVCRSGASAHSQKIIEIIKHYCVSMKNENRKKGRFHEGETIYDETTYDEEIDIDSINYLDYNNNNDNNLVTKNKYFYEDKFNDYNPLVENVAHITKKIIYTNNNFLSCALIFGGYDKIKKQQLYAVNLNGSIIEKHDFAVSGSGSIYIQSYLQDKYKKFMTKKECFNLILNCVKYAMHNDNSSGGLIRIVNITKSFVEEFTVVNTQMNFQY
Sequence of Pf5202 20S proteasome caspase-like (C-L) site (Q8I0U7 entry or part of it): as above
Sequence of Pf5202 20S proteasome caspase-like (C-L) site (Q8I6T3 entry or part of it, further chain): as the sequence (Q8I6T3 entry or part of it) above
Sequence of Pf3D7 20S proteasome chymotrypsin-like (CT-L) site (Q8IJT1 entry or part of it): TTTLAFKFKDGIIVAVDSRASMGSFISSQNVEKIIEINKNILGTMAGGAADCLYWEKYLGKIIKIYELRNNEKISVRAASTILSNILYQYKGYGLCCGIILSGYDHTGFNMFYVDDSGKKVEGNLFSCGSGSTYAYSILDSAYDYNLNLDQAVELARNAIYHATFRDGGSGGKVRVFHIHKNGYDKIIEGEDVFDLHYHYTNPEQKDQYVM
Sequence of Pf5202 20S proteasome chymotrypsin-like (CT-L) site (Q8IJT1 entry or part of it): as above

For `c1cc(-c2ccncc2)ccn1` [4,4′-bipy, 4,4′-bipyridine], the IC50 [1, 11] was > 100 µM, the IC50 [2, 12] was > 100 µM and the “Generation of ·OH radicals (in words)” value [3] was “did not generate any ·OH radicals”.

In the case of `OO` [Complex H2O2, Hydrogen peroxide, reference compound], the “fold change in ROS” value (Pf3D7; positive control, 24 h, 8 µM) is reported as 0.90 ± 0.37 fold, the “fold change in ROS” value (Pf3D7; positive control, 24 h, 40 µM) is reported as 1.34 ± 0.67 fold and the “fold change in ROS” value (Pf3D7; positive control, 24 h, 200 µM) is reported as 1.28 ± 0.62 fold. The “fold change in ROS” value (Pf3D7; [13]) was 1.77 ± 0.85 fold, the “fold change in ROS” value (Pf3D7; positive control, 48 h, 8 µM) was 2.97 ± 0.57 fold and the “fold change in ROS” value (Pf3D7; positive control, 48 h, 40 µM) was 3.55 ± 0.9 fold. For the same molecule, the “fold change in ROS” value (Pf3D7; positive control, 48 h, 200 µM) was 4.61 ± 0.15 fold, the “fold change in ROS” value (Pf3D7; [14]) was 5.75 ± 0.76 fold and the “fold change in ROS” value (Pf3D7; positive control, 72 h, 8 µM) was 0.25 ± 0.08 fold. For the same molecule, the “fold change in ROS” value (Pf3D7; positive control, 72 h, 40 µM) was 0.34 ± 0.12 fold, the “fold change in ROS” value (Pf3D7; positive control, 72 h, 200 µM) was 0.49 ± 0.22 fold and the “fold change in ROS” value (Pf3D7; [15]) was 1.00 ± 0.06 fold. For the same molecule, the “fold change in ROS” value (Pf5202; positive control, 24 h, 8 µM) was 1.10 ± 0.04 fold, the “fold change in ROS” value (Pf5202; positive control, 24 h, 40 µM) was 1.16 ± 0.13 fold and the “fold change in ROS” value (Pf5202; positive control, 24 h, 200 µM) was 1.08 ± 0.18 fold. The “fold change in ROS” value (Pf5202; [13]) was 1.15 ± 0.22 fold, the “fold change in ROS” value (Pf5202; positive control, 48 h, 8 µM) was 1.78 ± 0.16 fold and the “fold change in ROS” value (Pf5202; positive control, 48 h, 40 µM) was 1.54 ± 0.28 fold. For the same molecule, the “fold change in ROS” value (Pf5202; positive control, 48 h, 200 µM) was 1.41 ± 0.16 fold, the “fold change in ROS” value (Pf5202; [14]) was 1.68 ± 0.28 fold and the “fold change in ROS” value (Pf5202; positive control, 72 h, 8 µM) was 1.82 ± 0.15 fold. For the same molecule, the “fold change in ROS” value (Pf5202; positive control, 72 h, 40 µM) was 1.17 ± 0.36 fold, the “fold change in ROS” value (Pf5202; positive control, 72 h, 200 µM) was 2.06 ± 0.25 fold and the “fold change in ROS” value (Pf5202; [15]) was 3.71 ± 0.14 fold.

In the case of `O.O.O.O.O.O.O=[N+]([O-])[O-].O=[N+]([O-])[O-].[Zn+2]` [Zn(NO3)2·6H2O, Zinc(II) nitrate hexahydrate], the IC50 ([1]; 72 h incubation) is reported as > 100 µM, the IC50 ([2]; 72 h incubation) is reported as > 100 µM and the “Generation of ·OH radicals (in words)” value [3] is reported as “did not generate any ·OH radicals”.

`O.O.O.O=[N+]([O-])[O-].O=[N+]([O-])[O-].[Cu+2]` [Cu(NO3)2·3H2O, Copper(II) nitrate trihydrate, reference compound] showed an IC50 [1, 16] of ~49 µM, an IC50 ([1]; 72 h incubation) of 49.4 ± 2.3 µM and an IC50 [2, 16] of ~46 µM. For the same molecule, the IC50 ([2]; 72 h incubation) was 46.1 ± 4.29 µM, the “Concentration of •OH radical” value ([3]; 2 h) was 14.59 ± 2.39 µM and the “Concentration of •OH radical” value ([3]; 4 h) was 19.27 ± 2.36 µM. For the same molecule, the “Concentration of •OH radical” value ([3]; 24 h) was 36.29 ± 1.80 µM, the “Concentration of •OH radical” value ([3]; 48 h) was 33.20 ± 1.62 µM and the “Concentration of •OH radical” value ([3]; 72 h) was 29.82 ± 1.60 µM. For the same molecule, the “Percentage of haemolysis (haemolytic index, HI)” value [4] was 3%.

With `CCN(CC)CCCC(C)Nc1ccnc2cc(Cl)ccc12` (stereo not drawn) [CQ, Chloroquine diphosphate salt] the IC50 ([1]; Plasmodium falciparum, 72 h) was > 100 µM, the “Drop in efficacy/potency towards Pf5202 relative to Pf3D7” value [1] was “more than 3000 ×” and the IC50 ([2]; Plasmodium falciparum, 3D7, 72 h) was 0.03 ± 0.01 µM.

With `c1cnc2c(c1)ccc1cccnc12` [phen, 1,10-phenanthroline, reference compound] the IC50 [5] was > 25 µM, the IC50 [6] was 1.79 ± 0.66 µM and the “Factor by which T-L site of Pf5202 is inhibited better than that of Pf3D7” value ([6]; ratio of T-L IC50 values) was “about 2.5 ×”. For the same molecule, the IC50 [7] was 4.47 ± 0.6 µM, the IC50 [1, 11] was > 100 µM and the IC50 [2, 12] was 4.27 ± 0.05 µM. The “Concentration of •OH radical” value ([3]; 24 h) was 0.15 ± 0.07 µM, the “Concentration of •OH radical” value ([3]; 48 h) was 0.36 ± 0.17 µM and the “Concentration of •OH radical” value ([3]; 72 h) was 0.30 ± 0.23 µM. The “Generation of ·OH radicals (in words)” value [3] was “did not generate any ·OH radicals”, the “fold change in ROS” value (Pf3D7; 48 h, 0.2 µM) was 3.10 ± 0.98 fold and the “fold change in ROS” value (Pf3D7; 48 h, 1.0 µM) was 2.91 ± 0.05 fold. For the same molecule, the “fold change in ROS” value (Pf3D7; 48 h, 5.0 µM) was 4.47 ± 0.71 fold, the “fold change in ROS” value (Pf3D7; 48 h, 25.0 µM) was 6.09 ± 0.91 fold and the “fold change in ROS” value (Pf5202; 24 h, 0.2 µM) was 1.06 ± 0.06 fold. The “fold change in ROS” value (Pf5202; 24 h, 1.0 µM) was 1.08 ± 0.09 fold, the “fold change in ROS” value (Pf5202; 24 h, 5.0 µM) was 0.91 ± 0.05 fold and the “fold change in ROS” value (Pf5202; 24 h, 25.0 µM) was 0.80 ± 0.04 fold. For the same molecule, the “fold change in ROS” value (Pf5202; 48 h, 0.2 µM) was 1.78 ± 0.78 fold, the “fold change in ROS” value (Pf5202; 48 h, 1.0 µM) was 1.31 ± 0.21 fold and the “fold change in ROS” value (Pf5202; 48 h, 5.0 µM) was 1.40 ± 0.13 fold. The “fold change in ROS” value (Pf5202; 48 h, 25.0 µM) was 1.32 ± 0.31 fold, the “fold change in ROS” value (Pf5202; 72 h, 0.2 µM) was 1.35 ± 0.71 fold and the “fold change in ROS” value (Pf5202; 72 h, 1.0 µM) was 1.17 ± 0.44 fold. The “fold change in ROS” value (Pf5202; 72 h, 5.0 µM) was 1.08 ± 0.51 fold and the “fold change in ROS” value (Pf5202; 72 h, 25.0 µM) was 1.21 ± 1.25 fold.

In the case of `C[C@@H]1CC[C@H]2[C@@H](C)C(=O)O[C@@H]3O[C@@]4(C)CC[C@@H]1[C@]32OO4` [ART, Artemisinin], the IC50 [1, 11] is reported as > 100 µM, the “Drop in efficacy/potency towards Pf5202 relative to Pf3D7” value [1] is reported as “more than 3000 ×” and the IC50 [2, 12] is reported as 0.04 ± 0.01 µM.

In the case of `O=[N+]([O-])c1ccc(S(=O)(=O)N2CCN(c3ccnc4cc(Cl)ccc34)CC2)c([N+](=O)[O-])c1` [VR23, reference compound], the IC50 [5] is reported as > 5 µM, the IC50 [8] is reported as > 5 µM and the IC50 [9] is reported as > 5 µM. The IC50 [6] was 0.86 ± 0.09 µM, the IC50 [10] was > 5 µM and the IC50 [7] was 0.78 ± 0.11 µM.

Source: publication PMC9758846, “Dinuclear and mononuclear metal(II) polypyridyl complexes against drug-sensitive and drug-resistant Plasmodium falciparum and their mode of action” (Malaria Journal, 2022)
